Patent US20120129781A1, “COMPOSITION COMPRISING ALPHA-LIPOIC ACID AND CARNOSINE FOR TREATING THE PHANTOM LIMB SYNDROME” (DIFASS INTERNATIONAL S.R.L., priority 2009, published 2012)

What was measured:
phantom limb syndrome = assay: Two-month daily oral treatment of lower-limb amputee patients affected by phantom limb syndrome (ASIS, VAS, McGill Pain Questionnaire, QoL at t0, 30 and 60 days); type: in vivo; settings: lower-limb amputees, daily oral uptake for two months, evaluated at t0, 30 and 60 days
Description: In order not to negatively influence the test, it was decided not to include the following in such groups: diabetic patients (in order to avoid interferences with the symptoms of diabetic neuropathy and with the drugs used by the diabetic patient), subjects with psychiatric pathologies also at a compensation stage, subjects with serious cognitive deficits, subjects affected by active hepatic and/or renal pathologies, subjects with organ pathologies and/or other serious comorbidities.
Group A (reference) was subdivided into two uniform groups A1 and A2; group A1 was subjected to a conventional treatment, orally taking for two months a daily dosage amount of the neuromodulator Gabapentin, a known anti-epileptic drug with indications in the treatment of neuropathic pain, as described in US patent application publication No. US 2006/159743. Group A2 was subjected to the same treatment, substituting the neuromodulator Gabapentin with the analogous neuromodulator Pregabalin.
Groups B and C were subjected, during the same two-month period, to a daily uptake of the composition 1 and, respectively, 2 of the present invention, in the same daily dosage amount of 1,200 mg.
This text is aimed at investigating how an amputee perceives their own body image. It is constituted by 20 points; the subjects are asked to indicate their answer by using a scale from 1 (never) to 5 (always). […]

phantom limb pain = settings: literature reports (Smith et al. 2005; Bergmans et al. 2002); cited from earlier work

SMILES: CC(C)C[C@H](CN)CC(=O)O [pregabalin]
- phantom limb pain and stump pain (VAS and McGill Pain Questionnaire) (phantom limb syndrome): only experienced a certain decrease of the pain
- phantom limb sensation (sensation of possession of the missing limb, ASIS Amputee Body Image Scale) (phantom limb syndrome): did not receive any benefit

SMILES: CCC(=O)C(CC(C)N(C)C)(c1ccccc1)c1ccccc1 (stereo not drawn) [methadone]
- effect on phantom limb pain (literature) (phantom limb pain): effective reduction of the phantom limb pain
